{"source": "ChEMBL document CHEMBL3745637", "about": "“New hybrid molecules with anticonvulsant and antinociceptive activity derived from 3-methyl- or 3,3-dimethyl-1-[1-oxo-1-(4-phenylpiperazin-1-yl)propan-2-yl]pyrrolidine-2,5-diones” (Bioorg Med Chem, 2016)", "key": {"Mus musculus [1]": {"tested_on": "Mus musculus", "assay": "Anticonvulsant activity in ip dosed Swiss mouse assessed as protection against maximal electroshock-induced seizures at 0.25 hrs", "format": "functional"}, "Mus musculus [2]": {"tested_on": "Mus musculus", "assay": "Anticonvulsant activity in Swiss mouse assessed as protection against maximal electroshock-induced seizures at 100 mg/kg, ip pretreated for 0.25 hrs", "format": "functional, organism-based"}, "Mus musculus [3]": {"tested_on": "Mus musculus", "assay": "Antinociceptive activity in ip dosed Swiss mouse assessed as reduction of formalin-induced licking at MES ED50 pretreated for 0.25 hrs measured during 20 to 25 mins", "format": "functional", "parameters": "scale not given: the % may be the effect or the level left"}, "Mus musculus [4]": {"tested_on": "Mus musculus", "assay": "Anticonvulsant activity in Swiss mouse assessed as protection against maximal electroshock-induced seizures at 100 mg/kg, ip pretreated for 2 hrs", "format": "functional, organism-based"}, "Mus musculus [5]": {"tested_on": "Mus musculus", "assay": "Anticonvulsant activity in ip dosed Swiss mouse assessed as protection against maximal electroshock-induced seizures at 0.5 hrs", "format": "functional"}, "[6]": {"assay": "Protective index, ratio of TD50 for neurotoxicity in ip dosed Swiss mouse to ED50 for anticonvulsant activity in ip dosed Swiss mouse 6 Hz psychomotor seizure model at 0.5 hrs", "format": "toxicity, organism-based", "conditions": "in vivo, read-out: Ratio TD50/ED50"}, "Mus musculus [7]": {"tested_on": "Mus musculus", "assay": "Anticonvulsant activity in ip dosed Swiss mouse assessed as reduction in clonic seizures at 0.5 hrs by subcutaneous pentylenetetrazole seizure test", "format": "functional"}, "[8]": {"assay": "Neurotoxicity in ip dosed Swiss mouse seizure model assessed as motor impairment pretreated for 0.5 hrs measured within 60 s by chimney test", "format": "toxicity, organism-based", "conditions": "in vivo"}, "Mus musculus [9]": {"tested_on": "Mus musculus", "assay": "Anticonvulsant activity in Swiss mouse assessed as reduction in clonic seizures at 100 mg/kg, ip pretreated for 2 hrs measured after 30 mins by subcutaneous pentylenetetrazole seizure test", "format": "functional, organism-based"}, "Mus musculus [10]": {"tested_on": "Mus musculus", "assay": "Anticonvulsant activity in Swiss mouse assessed as reduction in clonic seizures at 100 mg/kg, ip pretreated for 1 hr measured after 30 mins by subcutaneous pentylenetetrazole seizure test", "format": "functional, organism-based"}, "Mus musculus [11]": {"tested_on": "Mus musculus", "assay": "Anticonvulsant activity in Swiss mouse assessed as protection against maximal electroshock-induced seizures at 300 mg/kg, ip pretreated for 0.25 hrs", "format": "functional, organism-based"}, "Mus musculus [12]": {"tested_on": "Mus musculus", "assay": "Anticonvulsant activity against ip dosed Swiss mouse seizure model assessed as protection at 0.5 hrs by 6 Hz psychomotor seizure test", "format": "functional"}, "Mus musculus [13]": {"tested_on": "Mus musculus", "assay": "Anticonvulsant activity in ip dosed Swiss mouse assessed as prolong latency to first seizure episode pretreated for 0.25 hrs measured after 30 mins by subcutaneous pentylenetetrazole seizure test", "format": "functional, organism-based"}, "Mus musculus [14]": {"tested_on": "Mus musculus", "assay": "Anticonvulsant activity against ip dosed Swiss mouse seizure model assessed as protection at 0.25 hrs by 6 Hz psychomotor seizure test", "format": "functional"}, "Mus musculus [15]": {"tested_on": "Mus musculus", "assay": "Anticonvulsant activity against Swiss mouse seizure model assessed as protection at 100 mg/kg, ip pretreated for 0.5 hrs by 6 Hz psychomotor seizure test", "format": "functional, organism-based"}, "[16]": {"assay": "Protective index, ratio of TD50 for neurotoxicity in ip dosed Swiss mouse to ED50 for anticonvulsant activity in ip dosed scPTZ Swiss mouse model at 0.5 hrs", "format": "toxicity, organism-based", "conditions": "in vivo, read-out: Ratio TD50/ED50"}, "Mus musculus [17]": {"tested_on": "Mus musculus", "assay": "Antinociceptive activity in ip dosed Swiss mouse assessed as reduction of formalin-induced licking at MES ED50 pretreated for 0.25 hrs measured during 15 to 20 mins", "format": "functional", "parameters": "scale not given: the % may be the effect or the level left"}, "[18]": {"assay": "Protective index, ratio of TD50 for neurotoxicity in ip dosed Swiss mouse to ED50 for anticonvulsant activity in ip dosed Swiss mouse 6 Hz psychomotor seizure model at 0.25 hrs", "format": "toxicity, organism-based", "conditions": "in vivo, read-out: Ratio TD50/ED50"}, "[19]": {"assay": "Protective index, ratio of TD50 for neurotoxicity in ip dosed Swiss mouse to ED50 for anticonvulsant activity in ip dosed MES Swiss mouse model at 0.5 hrs", "format": "toxicity, organism-based", "conditions": "in vivo, read-out: Ratio TD50/ED50"}, "Mus musculus [20]": {"tested_on": "Mus musculus", "assay": "Anticonvulsant activity in Swiss mouse assessed as protection against maximal electroshock-induced seizures at 300 mg/kg, ip pretreated for 0.5 hrs", "format": "functional, organism-based"}, "Mus musculus [21]": {"tested_on": "Mus musculus", "assay": "Anticonvulsant activity in ip dosed Swiss mouse assessed as reduction in clonic seizures at 0.25 hrs by subcutaneous pentylenetetrazole seizure test", "format": "functional"}, "[22]": {"assay": "Protective index, ratio of TD50 for neurotoxicity in ip dosed Swiss mouse to ED50 for anticonvulsant activity in ip dosed scPTZ Swiss mouse model at 0.25 hrs", "format": "toxicity, organism-based", "conditions": "in vivo, read-out: Ratio TD50/ED50"}, "[23]": {"assay": "Neurotoxicity in ip dosed Swiss mouse seizure model assessed as motor impairment pretreated for 0.25 hrs measured within 60 s by chimney test", "format": "toxicity, organism-based", "conditions": "in vivo"}, "[24]": {"assay": "Protective index, ratio of TD50 for neurotoxicity in ip dosed Swiss mouse to ED50 for anticonvulsant activity in ip dosed MES Swiss mouse model at 0.25 hrs", "format": "toxicity, organism-based", "conditions": "in vivo, read-out: Ratio TD50/ED50"}, "Mus musculus [25]": {"tested_on": "Mus musculus", "assay": "Antinociceptive activity in ip dosed Swiss mouse assessed as reduction of formalin-induced licking at MES ED50 pretreated for 0.25 hrs measured during 1 to 5 mins", "format": "functional", "parameters": "scale not given: the % may be the effect or the level left"}, "Mus musculus [26]": {"tested_on": "Mus musculus", "assay": "Anticonvulsant activity against Swiss mouse seizure model assessed as protection at 100 mg/kg, ip pretreated for 0.25 hrs by 6 Hz psychomotor seizure test", "format": "functional, organism-based"}, "Mus musculus [27]": {"tested_on": "Mus musculus", "assay": "Anticonvulsant activity in Swiss mouse assessed as prolong latency to first seizure episode at 250 mg/kg pretreated for 0.5 hrs measured after 30 mins by subcutaneous pentylenetetrazole seizure test", "format": "functional, organism-based"}, "Mus musculus [28]": {"tested_on": "Mus musculus", "assay": "Anticonvulsant activity in Swiss mouse assessed as reduction in clonic seizures at 100 mg/kg, ip pretreated for 0.5 hrs measured after 30 mins by subcutaneous pentylenetetrazole seizure test", "format": "functional, organism-based"}}, "note": "Calls of active or inactive are those of the source. No cut-off for these calls is given here."}
{"compound": "CC1CC(=O)N(C(C)C(=O)N2CCN(c3cccc(Cl)c3)CC2)C1=O", "note": "(stereo not given)", "values": [{"measurement": "ED50", "setting": "Mus musculus [1]", "result": 89.7, "unit": "mg/kg"}, {"measurement": "Activity", "setting": "Mus musculus [2]", "result": "Active"}, {"measurement": "Activity", "setting": "Mus musculus [3]", "result": 88, "unit": "%"}, {"measurement": "Activity", "setting": "Mus musculus [4]", "result": "inactive"}, {"measurement": "ED50", "setting": "Mus musculus [5]", "result": 98.5, "unit": "mg/kg"}, {"measurement": "selectivity ratio at 0.5 h", "setting": "[6]", "result": 11.1}, {"measurement": "ED50", "setting": "Mus musculus [7]", "result": 121, "unit": "mg/kg"}, {"measurement": "TD50 at 0.5 h", "setting": "[8]", "result": 270, "unit": "mg/kg"}, {"measurement": "Activity", "setting": "Mus musculus [9]", "result": "inactive"}, {"measurement": "Activity", "setting": "Mus musculus [10]", "result": "inactive"}, {"measurement": "Activity", "setting": "Mus musculus [11]", "result": "Active"}, {"measurement": "ED50", "setting": "Mus musculus [12]", "result": 24.4, "unit": "mg/kg"}, {"measurement": "Activity", "setting": "Mus musculus [13]", "result": "Dose-dependent effect"}, {"measurement": "ED50", "setting": "Mus musculus [14]", "result": 13.6, "unit": "mg/kg"}, {"measurement": "Activity", "setting": "Mus musculus [15]", "result": "Active"}, {"measurement": "selectivity ratio at 0.5 h", "setting": "[16]", "result": 2.23}, {"measurement": "Activity", "setting": "Mus musculus [17]", "result": 74, "unit": "%"}, {"measurement": "selectivity ratio at 0.25 h", "setting": "[18]", "result": 19.2}, {"measurement": "selectivity ratio at 0.5 h", "setting": "[19]", "result": 2.74}, {"measurement": "Activity", "setting": "Mus musculus [20]", "result": "Active"}, {"measurement": "ED50", "setting": "Mus musculus [21]", "result": 114, "unit": "mg/kg"}, {"measurement": "selectivity ratio at 0.25 h", "setting": "[22]", "result": 2.3}, {"measurement": "TD50 at 0.25 h", "setting": "[23]", "result": 261, "unit": "mg/kg"}, {"measurement": "selectivity ratio at 0.25 h", "setting": "[24]", "result": 2.91}, {"measurement": "Activity", "setting": "Mus musculus [25]", "result": 45, "unit": "%"}, {"measurement": "Activity", "setting": "Mus musculus [26]", "result": "Active"}]}
{"compound": "CCCC(CCC)C(=O)O", "values": [{"measurement": "Activity", "setting": "Mus musculus [27]", "result": "Active"}]}
{"compound": "CCC(C(=O)N1CCN(c2cccc(C(F)(F)F)c2)CC1)N1C(=O)CC(C)C1=O", "note": "(stereo not given)", "values": [{"measurement": "ED50", "setting": "Mus musculus [1]", "result": 75.1, "unit": "mg/kg"}, {"measurement": "Activity", "setting": "Mus musculus [3]", "result": 57, "unit": "%"}, {"measurement": "ED50", "setting": "Mus musculus [5]", "result": 75.7, "unit": "mg/kg"}, {"measurement": "selectivity ratio at 0.5 h", "setting": "[6]", "result": 4.12}, {"measurement": "ED50", "setting": "Mus musculus [7]", "result": "> 130", "unit": "mg/kg"}, {"measurement": "TD50 at 0.5 h", "setting": "[8]", "result": 170, "unit": "mg/kg"}, {"measurement": "Activity", "setting": "Mus musculus [9]", "result": "inactive"}, {"measurement": "Activity", "setting": "Mus musculus [10]", "result": "inactive"}, {"measurement": "Activity", "setting": "Mus musculus [11]", "result": "Active"}, {"measurement": "ED50", "setting": "Mus musculus [12]", "result": 41.2, "unit": "mg/kg"}, {"measurement": "Activity", "setting": "Mus musculus [13]", "result": "Dose-dependent effect"}, {"measurement": "ED50", "setting": "Mus musculus [14]", "result": 30.3, "unit": "mg/kg"}, {"measurement": "Activity", "setting": "Mus musculus [15]", "result": "Active"}, {"measurement": "Activity", "setting": "Mus musculus [17]", "result": 94, "unit": "%"}, {"measurement": "selectivity ratio at 0.25 h", "setting": "[18]", "result": 5.42}, {"measurement": "selectivity ratio at 0.5 h", "setting": "[19]", "result": 2.24}, {"measurement": "ED50", "setting": "Mus musculus [21]", "result": 108, "unit": "mg/kg"}, {"measurement": "selectivity ratio at 0.25 h", "setting": "[22]", "result": 1.51}, {"measurement": "TD50 at 0.25 h", "setting": "[23]", "result": 164, "unit": "mg/kg"}, {"measurement": "Activity", "setting": "Mus musculus [28]", "result": "inactive"}, {"measurement": "selectivity ratio at 0.25 h", "setting": "[24]", "result": 2.19}, {"measurement": "Activity", "setting": "Mus musculus [25]", "result": "inactive"}, {"measurement": "Activity", "setting": "Mus musculus [26]", "result": "Active"}]}
